Test results from US7101844B2, “Cytoplasmic transduction peptides and uses thereof” (Creagene, Inc., priority 2002, dated 2006).

Assays:
HeLa cells [1] = assay: Transduction potential of FITC-labeled peptides by FACS; format: cell-based; details: FITC-labeled peptide
Text: It has been shown by trypsin treatment that the transduction potential of the peptides known so far is distorted presumably due to the influence of cell fixation (46). Therefore, to verify that the CTP-β-gal of this invention has genuine transduction potential, trypsinization steps were included in the experiments as described above. At this time, since the activity of CTP per se may be affected by its fusion partner β-gal, CTP labeled with fluorescent molecule instead of β-gal was examined for its transduction capacity into cells. HeLa cells were treated with CTP-FITC and then trypsinized prior to harvest. The amounts of the peptides transduced into the cells were measured by FACS (Fluorescence-activated cell sorter) analysis with FACSCalibur (Becton Dickison, USA).
HeLa cells were inoculated into 12-well plates at a density of 2×10^5/ml and cultured for 1 day at 37° C. […] The cells were washed twice and the fluorescent intensity of each sample was measured by FACS.
In order to examine the transduction potential of peptides at different concentrations, cells were treated for 2 hr with peptides with increasing concentrations of peptides, and then trypsinized before examination. The fluorescent intensity in the cells was measured by FACS.

HeLa cells [2] = assay: Transduction potential of CTP-β-gal following treatment with trypsin (staining); format: cell-based; details: 50 μg/ml, 20 hr, trypsin before fixation
Experimental: HeLa cells were cultured for 1 day in DMEM (high glucose) at a density of 2×10^5/ml in 48-well plates. Cells were washed once with 1× PBS, and then incubated further for additional 20 hr in OPTI-MEM containing PTD-β-gal, MTS-β-gal, CTP501-β-gal or CTP514-β-gal, respectively, at a concentration of 50 μg/ml. Thereafter, the cells were treated with trypsin-EDTA (10×) for 3 min at 37° C. to remove the CPP-β-gal attached to the cell surface, and then rinsed twice with 1× PBS, followed by fixing with a fixation solution for 10 min at room temperature. After washing twice with 1× PBS, the cells were stained with a staining solution for 2 hr at 37° C. and photographed under a microscope (FIG. 6b).

## CTP512: CTP (2G4R8R9R), sequence YGRRARRRRRR; representative CTP used from Example 5-4 on
HeLa cells [1]; 2 hr, trypsinized
  transduction potential at the same concentrations: significantly higher transduction potential than either PTD or MTS
HeLa cells [1]; trypsinized cells, FACS
  transduction potential over time: higher transduction potential than the PTD in all period of time
HeLa cells [2]
  β-gal activity transduced into cells: much more efficient to transduce β-gal into cells than either PTD or MTS
